According to the supplement of paper PMC11061612:

Legend:
Carboplatin = compound: C1CC(C1)(C(=O)[O-])C(=O)[O-].N.N.[Pt+2] [Carboplatin]; details: max 10 µM
Procedure, shortened: (§1)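 Viability was measured with CellTiter-Glo 2.0 luminescence after 72 hours of dosing at a final DMSO of typically 0.2%, and scaled between blank-well and DMSO-well means. Beforehand, cancer cell lines sat 24 hours at 37°C and 5% CO2 in 1536-well plates in 7.5 μl DMEM/F12 or RPMI with 10% FBS. A non-linear mixed effects model fitted two-parameter logistic curves to the dose responses. The single-agent IC50 comes from these fits.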

AZD5363 = compound: C1CN(CCC1(C(=O)N[C@@H](CCO)C2=CC=C(C=C2)Cl)N)C3=NC=NC4=C3C=CN4 [AZD5363]; details: max 10 µM
Procedure, shortened: as §1

AZD1775 = compound: C=CCn1c(=O)c2cnc(Nc3ccc(N4CCN(C)CC4)cc3)nc2n1-c1cccc(C(C)(C)O)n1 [AZD1775]; details: max 3 µM
Procedure, shortened: as §1

Trametinib = compound: CC(=O)Nc1cccc(-n2c(=O)n(C3CC3)c(=O)c3c(Nc4ccc(I)cc4F)n(C)c(=O)c(C)c32)c1 [Trametinib]; details: max 1 µM
Procedure, shortened: as §1

Paclitaxel = compound: CC(=O)O[C@H]1C(=O)[C@@]2(C)[C@H]([C@H](OC(=O)c3ccccc3)[C@]3(O)C[C@H](OC(=O)[C@H](O)[C@@H](NC(=O)c4ccccc4)c4ccccc4)C(C)=C1C3(C)C)[C@]1(OC(C)=O)CO[C@@H]1C[C@@H]2O [Paclitaxel]; details: max 3 µM
Procedure, shortened: as §1

Palbociclib = compound: CC(=O)c1c(C)c2cnc(Nc3ccc(N4CCNCC4)cn3)nc2n(C2CCCC2)c1=O [Palbociclib]; details: max 10 µM
Procedure, shortened: as §1

AZD1390 = compound: CC(C)n1c(=O)n(C)c2cnc3cc(F)c(-c4ccc(OCCCN5CCCCC5)nc4)cc3c21 [AZD1390]; details: max 0.3 µM
Procedure, shortened: as §1

Venetoclax = compound: CC1(C)CCC(CN2CCN(c3ccc(C(=O)NS(=O)(=O)c4ccc(NCC5CCOCC5)c([N+](=O)[O-])c4)c(Oc4cnc5[nH]ccc5c4)c3)CC2)=C(c2ccc(Cl)cc2)C1 [Venetoclax]; details: max 1 µM
Procedure, shortened: as §1

Dasatinib = compound: CC1=C(C(=CC=C1)Cl)NC(=O)C2=CN=C(S2)NC3=CC(=NC(=N3)C)N4CCN(CC4)CCO [Dasatinib]; details: max 2 µM
Procedure, shortened: as §1

SG3199 = compound: CC1=CN2[C@@H](C1)C=NC3=CC(=C(C=C3C2=O)OC)OCCCCCOC4=C(C=C5C(=C4)N=C[C@@H]6CC(=CN6C5=O)C)OC [SG3199]; details: max 0.001 µM
Procedure, shortened: as §1

AZD2811 = compound: CCN(CCO)CCCOc1ccc2c(Nc3cc(CC(=O)Nc4cccc(F)c4)[nH]n3)ncnc2c1 [AZD2811]; details: max 1 µM
Procedure, shortened: as §1

SN-38 = compound: CCc1c2c(nc3ccc(O)cc13)-c1cc3c(c(=O)n1C2)COC(=O)[C@]3(O)CC [SN-38]; details: max 0.3 µM
Procedure, shortened: as §1

AZD0156 = compound: CN(C)CCCOc1ccc(-c2ccc3ncc4c(c3c2)n(C2CCOCC2)c(=O)n4C)cn1 [AZD0156]; details: max 3 µM
Procedure, shortened: as §1

AZD4320 = compound: CN(CC[C@H](CSC1=CC=CC=C1)NC2=C(C=C(C=C2)S(=O)(=O)NC(=O)C3=CC=C(C=C3)N4CCC(CC4)[C@H](C5=CC=CC=C5C6=CC=C(C=C6)Cl)O)S(=O)(=O)C(F)(F)F)CCO [AZD4320]; details: max 1 µM
Procedure, shortened: as §1

Alisertib = compound: COc1cc(Nc2ncc3c(n2)-c2ccc(Cl)cc2C(c2c(F)cccc2OC)=NC3)ccc1C(=O)O [Alisertib]; details: max 10 µM
Procedure, shortened: as §1

Etoposide = compound: COc1cc([C@@H]2c3cc4c(cc3[C@@H](O[C@@H]3O[C@@H]5CO[C@@H](C)O[C@H]5[C@H](O)[C@H]3O)[C@H]3COC(=O)[C@H]23)OCO4)cc(OC)c1O [Etoposide]; details: max 10 µM
Procedure, shortened: as §1

Gefitinib = compound: COc1cc2ncnc(Nc3ccc(F)c(Cl)c3)c2cc1OCCCN1CCOCC1 [Gefitinib]; details: max 10 µM
Procedure, shortened: as §1

Prexasertib = compound: COc1cccc(OCCCN)c1-c1cc(Nc2cnc(C#N)cn2)n[nH]1 [Prexasertib]; details: max 1 µM
Procedure, shortened: as §1

Doxorubicin = compound: COc1cccc2c1C(=O)c1c(O)c3c(c(O)c1C2=O)C[C@@](O)(C(=O)CO)C[C@@H]3O[C@H]1C[C@H](N)[C@H](O)[C@H](C)O1 [Doxorubicin]; details: max 1 µM
Procedure, shortened: as §1

AZD5153 = compound: COc1nnc2ccc(N3CCC(c4ccc(OCCN5CCN(C)C(=O)[C@H]5C)cc4)CC3)nn12 [AZD5153]; details: max 1 µM
Procedure, shortened: as §1

Lapatinib = compound: CS(=O)(=O)CCNCc1ccc(-c2ccc3ncnc(Nc4ccc(OCc5cccc(F)c5)c(Cl)c4)c3c2)o1 [Lapatinib]; details: max 10 µM
Procedure, shortened: as §1

AZD8186 = compound: C[C@@H](Nc1cc(F)cc(F)c1)c1cc(C(=O)N(C)C)cc2c(=O)cc(N3CCOCC3)oc12 [AZD8186]; details: max 10 µM
Procedure, shortened: as §1

Crizotinib = compound: C[C@@H](Oc1cc(-c2cnn(C3CCNCC3)c2)cnc1N)c1c(Cl)ccc(F)c1Cl [Crizotinib]; details: max 10 µM
Procedure, shortened: as §1

Savolitinib = compound: C[C@@H](c1ccc2nccn2c1)n1nnc2ncc(-c3cnn(C)c3)nc21 [Savolitinib]; details: max 1 µM
Procedure, shortened: as §1

AZD6738 = compound: C[C@@H]1COCCN1C2=NC(=NC(=C2)C3(CC3)[S@](=N)(=O)C)C4=C5C=CNC5=NC=C4 [AZD6738]; details: max 10 µM
Procedure, shortened: as §1

AZD5991 = compound: Cc1c2c(nn1C)CSCc1cc(n(C)n1)CSc1cc(c3ccccc3c1)OCCCc1c(C(=O)O)n(C)c3c-2c(Cl)ccc13 [AZD5991]; details: max 1 µM
Procedure, shortened: as §1

AZD7648 = compound: Cc1cc2ncnn2cc1Nc1ncc2c(n1)n(C1CCOCC1)c(=O)n2C [AZD7648]; details: max 10 µM
Procedure, shortened: as §1

Taselisib = compound: Cc1nc(-c2cn3c(n2)-c2ccc(-c4cnn(C(C)(C)C(N)=O)c4)cc2OCC3)n(C(C)C)n1 [Taselisib]; details: max 10 µM
Procedure, shortened: as §1

Selumetinib = compound: Cn1cnc2c(F)c(Nc3ccc(Br)cc3Cl)c(C(=O)NOCCO)cc21 [Selumetinib]; details: max 10 µM
Procedure, shortened: as §1

SRA737 = compound: N#Cc1cnc(Nc2cc(NC[C@H]3CNCCO3)c(C(F)(F)F)cn2)cn1 [SRA737]; details: max 10 µM
Procedure, shortened: as §1

MK-2206 = compound: NC1(c2ccc(-c3nc4ccn5c(=O)[nH]nc5c4cc3-c3ccccc3)cc2)CCC1 [MK-2206]; details: max 10 µM
Procedure, shortened: as §1

Gemcitabine = compound: Nc1ccn([C@@H]2O[C@H](CO)[C@@H](O)C2(F)F)c(=O)n1 [Gemcitabine]; details: max 0.3 µM
Procedure, shortened: as §1

[1] = compound: O=C(Nc1ccc2[nH]nc(-c3ccncc3)c2c1)[C@@H]1CCN(CC(=O)N2CCN(c3ccc(-c4ncccn4)cc3)CC2)C1; details: max 5 µM
Procedure, shortened: as §1

Olaparib = compound: O=C(c1cc(Cc2n[nH]c(=O)c3ccccc23)ccc1F)N1CCN(C(=O)C2CC2)CC1 [Olaparib]; details: max 10 µM
Procedure, shortened: as §1

5-Fluorouracil = compound: O=c1[nH]cc(F)c(=O)[nH]1 [5-Fluorouracil]; details: max 20 µM
Procedure, shortened: as §1

| Cell Line | IC50, cell viability 72 h (Carboplatin) | IC50, cell viability 72 h (AZD5363) | IC50, cell viability 72 h (AZD1775) | IC50, cell viability 72 h (Trametinib) | IC50, cell viability 72 h (Paclitaxel) | IC50, cell viability 72 h (Palbociclib) | IC50, cell viability 72 h (AZD1390) | IC50, cell viability 72 h (Venetoclax) | IC50, cell viability 72 h (Dasatinib) | IC50, cell viability 72 h (SG3199) | IC50, cell viability 72 h (AZD2811) | IC50, cell viability 72 h (SN-38) | IC50, cell viability 72 h (AZD0156) | IC50, cell viability 72 h (AZD4320) | IC50, cell viability 72 h (Alisertib) | IC50, cell viability 72 h (Etoposide) | IC50, cell viability 72 h (Gefitinib) | IC50, cell viability 72 h (Prexasertib) | IC50, cell viability 72 h (Doxorubicin) | IC50, cell viability 72 h (AZD5153) | IC50, cell viability 72 h (Lapatinib) | IC50, cell viability 72 h (AZD8186) | IC50, cell viability 72 h (Crizotinib) | IC50, cell viability 72 h (Savolitinib) | IC50, cell viability 72 h (AZD6738) | IC50, cell viability 72 h (AZD5991) | IC50, cell viability 72 h (AZD7648) | IC50, cell viability 72 h (Taselisib) | IC50, cell viability 72 h (Selumetinib) | IC50, cell viability 72 h (SRA737) | IC50, cell viability 72 h (MK-2206) | IC50, cell viability 72 h (Gemcitabine) | IC50, cell viability 72 h [1] | IC50, cell viability 72 h (Olaparib) | IC50, cell viability 72 h (5-Fluorouracil) |
| --- | --- | --- | --- | --- | --- | --- | --- | --- | --- | --- | --- | --- | --- | --- | --- | --- | --- | --- | --- | --- | --- | --- | --- | --- | --- | --- | --- | --- | --- | --- | --- | --- | --- | --- | --- |
| Mewo (Melanoma) | > 10000 nM | > 10000 nM | 1420 nM | 569 nM | 653 nM | > 10000 nM | > 300 nM | > 1000 nM | > 2000 nM | > 1 nM | > 1000 nM | > 300 nM | > 3000 nM | > 1000 nM | > 10000 nM | > 10000 nM | > 10000 nM | 413 nM | > 1000 nM | > 1000 nM | > 10000 nM | > 10000 nM | > 10000 nM | > 1000 nM | > 10000 nM | > 1000 nM | > 10000 nM | > 10000 nM | > 10000 nM | > 10000 nM | > 10000 nM | > 300 nM | 3570 nM | > 10000 nM | > 20000 nM |
| HDLM-2 (Hodgkin's Lymphoma) | > 10000 nM | > 10000 nM | 387 nM | > 1000 nM | 27.4 nM | > 10000 nM | > 300 nM | > 1000 nM | > 2000 nM | > 1 nM | > 1000 nM | 206 nM | > 3000 nM | 82.6 nM | > 10000 nM | 6080 nM | > 10000 nM | 504 nM | > 1000 nM | 936 nM | > 10000 nM | > 10000 nM | > 10000 nM | > 1000 nM | > 10000 nM | 119 nM | > 10000 nM | > 10000 nM | > 10000 nM | > 10000 nM | > 10000 nM | > 300 nM | > 5000 nM | > 10000 nM | > 20000 nM |
| RKO (Colorectal Carcinoma) | > 10000 nM | 5240 nM | 787 nM | 75.3 nM | 3.91 nM | > 10000 nM | > 300 nM | > 1000 nM | > 2000 nM | > 1 nM | > 1000 nM | 16.5 nM | > 3000 nM | > 1000 nM | 7230 nM | 6790 nM | > 10000 nM | 35.4 nM | 240 nM | 67.2 nM | > 10000 nM | > 10000 nM | 9500 nM | > 1000 nM | 2040 nM | > 1000 nM | > 10000 nM | 2950 nM | 6520 nM | 7180 nM | > 10000 nM | 9.84 nM | 797 nM | > 10000 nM | 8590 nM |
| RPMI-6666 (Non-Cancerous) | > 10000 nM | 2950 nM | 234 nM | > 1000 nM | 3.63 nM | 8620 nM | > 300 nM | 174 nM | 170 nM | > 1 nM | 469 nM | 2.31 nM | > 3000 nM | 37.1 nM | 406 nM | 401 nM | > 10000 nM | 5.81 nM | 58.3 nM | 154 nM | > 10000 nM | 1330 nM | 6930 nM | > 1000 nM | 3900 nM | 731 nM | > 10000 nM | 621 nM | > 10000 nM | 2460 nM | 4640 nM | 5.75 nM | > 5000 nM | > 10000 nM | 3430 nM |
| HO-1-u-1 (Oral Cavity Carcinoma) | > 10000 nM | 1310 nM | 816 nM | > 1000 nM | 820 nM | > 10000 nM | > 300 nM | > 1000 nM | 532 nM | > 1 nM | > 1000 nM | 239 nM | > 3000 nM | > 1000 nM | 6330 nM | > 10000 nM | > 10000 nM | 28.8 nM | > 1000 nM | > 1000 nM | 7600 nM | > 10000 nM | > 10000 nM | > 1000 nM | 3160 nM | > 1000 nM | > 10000 nM | 618 nM | > 10000 nM | 6170 nM | > 10000 nM | > 300 nM | 4140 nM | > 10000 nM | > 20000 nM |
